Measured values taken from patent publication US20260345555A1, “Compositions and Methods for Protecting Salivary Glands from Off-Target Radiation Damage” (University of Rochester, priority 2022, published 2026).
Counter-ions that a name gives are not always drawn.

Legend:
[1] = tested on: Reduced glutathione in salivary gland cell clusters (SGm); test: Glutathione assay in salivary gland tissue chip, 4 days post-radiation (15 Gy); also first screen of Selleck library at 100 μM; type: cell-based, mouse; settings: for Glutathione normalized mean intensity: first screen of Selleck library at 100 μM; for Glutathione normalized mean intensity / prevention of radiation-induced reduction of glutathione levels: 4 days post-radiation; for Estimated EC50, Glutathione: nonlinear fit in Prism of dose response curves
Description: (§1) A salivary gland tissue chip was leveraged for high-content drug screening to identify novel radioprotective compounds (Song Y et al., Commun Biol., 2021, 4). The chip platform consists of an array of near-spherical microbubble (MB) cavities formed in poly(dimethylsiloxane) (PDMS). Each chip, containing ~50 MBs, affixed within wells of a 96-well plate (FIG. 1C). Primary salivary gland cell clusters (FIG. 1A), suspended in a poly(ethylene glycol) (PEG) hydrogel precursor and MMP-degradable peptide crosslinker solution together with the photoinitiator LAP, were applied to the chip allowing the clusters to deposit into the MBs (FIG. 1D). In situ polymerization of the hydrogel was achieved using long-wave, low intensity UV light. Over time, the cell clusters aggregate and proliferate to form SGm (FIG. 1C).
The glutathione assay was used to measure glutathione levels at various time points post-radiation to determine the optimal time point for detecting differences between 0 Gy and 15 Gy. Based on the data, the greatest signal separation was measured at 4 days post-irradiation (FIG. 9). This timepoint is similar to previous reports on decreases in glutathione post-radiation and was used for all experiments moving forward (Meeks L et al., Physiological Genomics, 2021, 53: 85-98).
The dose response to WR-1065 was examined to determine effective concentrations of WR-1065 to prevent the reduction of glutathione levels post-radiation. A SGm tissue chip was cultured for 4 days to allow spheres to form. The chip was then treated with WR-1065 30 minutes before and during radiation, followed by drug wash out with media 30 minutes post-radiation (FIG. 2A). This dosing scheme is consistent with the use of Amifostine clinically and with previous work. The glutathione assay was performed at 4 days post-radiation (FIG. 2A). […] Moreover, it is clinically relevant as 15-30 minutes before radiation, patients are administered Amifostine intravenously at 200 mg/m (Escobar A et al., IntechOpen, 2019, pp. 15-37; Eisbruch A, J Clin Oncol, 2011, 29: 119-121; Bardet, E. et al. Semin Oncol, 2002, 29, 57-60). Assuming an average adult body surface area of 17,000 cm^2 and a blood volume of 1.35 gallons (5.1 liters), Amifostine is administered at 300 μM (Mosteller, R. D. N Engl J Med 317, 1098 (1987)).
The glutathione and senescence assays were used to screen a library of FDA-approved drugs (Selleck Chemicals) at 100 μM. Drugs were first screened using the glutathione assay according to the timeline depicted in FIG. 2A. Any compound resulting in statistically similar glutathione levels compared to 0 Gy control was considered a hit (FIG. 4, grey circles). Hits with the glutathione assay were then tested with the senescence assay and considered a “double hit” if senescence levels were statistically similar to levels at 0 Gy (FIG. 4, black circles). […] While this hit rate is higher than many other drug screening reports (0.1-0.3%), this may be due to the statistical rigor afforded by the tissue chip format (Blanchard, C et al., Antimicrob Agents Chemother 2016, 60, 862-872; Colquhoun, J. M et al., Antibiotics (Basel) 2019, 8, 48). Additionally, phenotypic screens generally have higher hit rates than target-based screens (>1%) (Moffat, J. G et al., Nature Reviews Drug Discovery 2017, 16, 531-543; Rottman, M et al., Science 2010, 329, 1175-1180).
Mice were euthanized and the submandibular glands (SMG) were removed and chopped with a razor blade for 5 min. The tissue was then incubated in Hank's buffered salt solution (HBSS) containing 15 mM HEPES, 50 U/mL collagenase type II (Thermo Fischer 17101015), and 100 U/mL hyaluronidase (Sigma Aldrich H3506) at 37 °C for 30 min. Cells were centrifuged, then resuspended in HBSS with 15 mM HEPES and passed through 100 μm and 20 μm mesh filters to isolate clusters between 20-100 μm. The digestion protocol produces cell cluster sizes evenly distributed between 20 to 100 μm (Song, Y et al., Advanced Healthcare Materials). […]

[2] = tested on: senescence-associated β-galactosidase in salivary gland cell clusters (SGm); test: Cellular senescence assay (SPiDER-βGal) in salivary gland tissue chip, 5 days post-radiation (15 Gy); also second screen of library hits at 100 μM; type: cell-based, mouse; settings: for Senescence normalized mean intensity: second screen of library hits at 100 μM, 5 days post-radiation, only drugs nonsignificant compared to 0 Gy in the glutathione assay; for double hit in the drug screen: glutathione and senescence assays, 100 μM, statistically similar to 0 Gy
Description: as §1, with “The” for “A salivary gland tissue chip was leveraged for high-content drug screening to identify novel radioprotective compounds (Song Y et al., Commun Biol., 2021, 4). The”
For senescence, a protocol similar to the glutathione assay was followed to determine the optimal time point post-radiation for detecting a change in senescence between 0 Gy and 15 Gy, as measured by senescence-associated β-galactosidase activity.
The glutathione and senescence assays were used to screen a library of FDA-approved drugs (Selleck Chemicals) at 100 μM. Drugs were first screened using the glutathione assay according to the timeline depicted in FIG. 2A. […] Hits with the glutathione assay were then tested with the senescence assay and considered a “double hit” if senescence levels were statistically similar to levels at 0 Gy (FIG. 4, black circles).
Mice were euthanized and the submandibular glands (SMG) were removed and chopped with a razor blade for 5 min. […] Cells were centrifuged, then resuspended in HBSS with 15 mM HEPES and passed through 100 μm and 20 μm mesh filters to isolate clusters between 20-100 μm. […] The isolated clusters were combined with hydrogel precursor solution and seeded in MB array-based chips as described below.
The cell/gel precursor solution (25 μL for 48 well; 20 μL for 96 well) was pipetted onto the MB chips and incubated for 30 min, pipetting every 10 min to redisperse cells that had settled onto the surface of the chip.
A cellular senescence assay for the chips was developed by adapting the Cellular Senescence Detection Kit—SPiDER-βGal (Dojindo Molecular Technologies, Inc. SG04). Bafilomycin A1 and SPiDER-βGal stock solutions were prepared in DMSO per manufacturer directions. The assay was performed by first incubating the chips with bafilomycin A1 (1:1000 dilution in media) for 1 hr at 37 °C. […] Chips were washed twice with media and imaged using a fluorescence microscope with a Texas Red filter (Excitation: 580 nm; Emission: 604 nm).
For radioprotection experiments, SGm were cultured in MB-hydrogel chips for 4 days, then drugs were added to the chips 30 min prior to irradiation and washed out with media 30 min post-radiation treatment. […] The glutathione and senescence assays were performed at 4- and 5-days post-radiation. For assay validation experiments, at least 3 chips (N=3) were used for each drug, corresponding to >100 MBs (n>100); these values are listed in the figure description for each experiment. Mean, standard deviation, and statistics were calculated based on the number of MBs (n).
For screening of the Selleck Chemicals compound library, the same treatment scheme was used, with drugs administered at 100 μM. One MB chip (N=1) was used per compound, with ~40-50 MBs per chip […]; statistics were calculated using the number of MBs (n) and compared to 0 Gy controls.
For both the glutathione and cellular senescence assays, images were quantified in ImageJ.

Structure (SMILES)	Glutathione normalized mean intensity ([1]; 15 Gy)	Senescence normalized mean intensity ([2]; 15 Gy)	other results
CC(=O)OCC[N+](C)(C)C.[Cl-] [Acetylcholine chloride]	1.04	1.205	
Cc1cnc(C(=O)O)c[n+]1[O-] [Acipimox]	1.03	1.379	
NC(N)=NC(=O)c1nc(Cl)c(N)nc1N [Amiloride hydrochloride (Midamor)]	1.018	1.487	
COc1ccccc1OCCNCC(O)COc1cccc2[nH]c3ccccc3c12 (stereo not drawn) [Carvedilol]	0.9878	1.255	
C[C@H](CCC(=O)O)[C@H]1CC[C@H]2[C@@H]3[C@H](O)C[C@@H]4C[C@H](O)CC[C@]4(C)[C@H]3CC[C@]12C [Chenodeoxycholic acid]	1.11	1.45	
CN(C)CCC(c1ccc(Cl)cc1)c1ccccn1 (stereo not drawn) [Chlorpheniramine Maleate]	1.145	1.308	
CN1CCC[C@@H]1CCO[C@](C)(c1ccccc1)c1ccc(Cl)cc1 [Clemastine Fumarate]	1.106	1.237	
CCOC(=O)C(C)(C)Oc1ccc(Cl)cc1 [Clofibrate (Atromid-S)]	1.009	1.714	
COc1cc(/C=C/C(=O)CC(=O)/C=C/c2ccc(O)c(OC)c2)ccc1O [Curcumin]	0.9059	0.8098	
CC/C(=C(/CC)c1ccc(O)cc1)c1ccc(O)cc1 [Diethylstilbestrol (Stilbestrol)]	0.8894	0.8812	concentration range of radioprotection, glutathione assay ([1]; dose response, 15 Gy): 10 to 100 µM; Estimated EC50, Glutathione ([1]; 15 Gy): 0.7 µM; concentration range of radioprotection, senescence assay ([2]; dose response, 15 Gy): 50 to 100 µM; Estimated EC50, Senescence ([2]; nonlinear fit in Prism of dose response curves, 15 Gy): 37.7 µM
CC(C(=O)[O-])c1cccc(Oc2ccccc2)c1.CC(C(=O)[O-])c1cccc(Oc2ccccc2)c1.[Ca+2] (stereo not drawn) [Fenoprofen calcium]	0.9731	1.472	
COC(=O)Nc1nc2cc(C(=O)c3ccc(F)cc3)ccc2[nH]1 [Flubendazole (Flutelmium)]	1.065	1.444	
Cc1cnc(C(=O)NCCc2ccc(S(=O)(=O)NC(=O)NC3CCCCC3)cc2)cn1 [Glipizide (Glucotrol)]			radioprotection in dose response, glutathione assay ([1]; dose response, 15 Gy): protection only at higher concentrations; Estimated EC50, Glutathione ([1]; 15 Gy): 4.0 µM; radioprotection in dose response, senescence assay ([2]; dose response, 15 Gy): variable protection
O=NN(CCCl)C(=O)NC1CCCCC1 [Lomustine (CeeNU)]	0.9042	1.023	
CC(=O)N[C@@H](CS)C(=O)O [N-acetylcysteine]			prevention of radiation-induced reduction of glutathione levels ([1]; 1 mM, 15 Gy): no improvement in glutathione levels; prevention of radiation-induced reduction of glutathione levels ([1]; 4 mM, 15 Gy): no improvement in glutathione levels; radioprotection using the glutathione assay ([1]; 10 mM): partial radioprotection; glutathione levels rescued ([1]; 10 mM, 15 Gy): 56%; protection against radiation-induced senescence ([2]; 10 mM): protective; inhibition at 1000 µM ([2]; Mus musculus, light or radiation study, 120 h, 1 mM, versus untreated, irradiated controls, read-out: reduction in senescence): 83%; inhibition at 4000 µM ([2]; Mus musculus, light or radiation study, 120 h, 4 mM, versus untreated, irradiated controls, read-out: reduction in senescence): 57%; inhibition at 10000 µM ([2]; Mus musculus, light or radiation study, 120 h, 10 mM, versus untreated, irradiated controls, read-out: reduction in senescence): 82%
COC(=O)C1=C(C)NC(C)=C(C(=O)OC)C1c1ccccc1[N+](=O)[O-] [Nifedipine (Adalat)]	0.9216	0.9725	
CO[C@H]1/C=C/O[C@@]2(C)Oc3c(C)c(O)c4c(c3C2=O)C2=NC3(CCN(CC(C)C)CC3)NC2=C(NC(=O)/C(C)=C\C=C\[C@H](C)[C@H](O)[C@@H](C)[C@@H](O)[C@@H](C)[C@H](OC(C)=O)[C@@H]1C)C4=O [Rifabutin (Mycobutin)]			double hit in the drug screen [2]: double hits
CO[C@H]1/C=C/O[C@@]2(C)Oc3c(C)c(O)c4c(O)c(c(/C=N/N5CCN(C)CC5)c(O)c4c3C2=O)NC(=O)/C(C)=C\C=C\[C@H](C)[C@H](O)[C@@H](C)[C@@H](O)[C@@H](C)[C@H](OC(C)=O)[C@@H]1C [Rifampin]			double hit in the drug screen [2]: double hits
